Legend:
Assay type in all cases: in vivo
[1] = tested on: soybean (Glycine max -- var. Winchester); test: pre-emergence herbicidal activity, soybean; conditions: 1 kg/Ha, about fourteen days, read-out: pre-emergence herbicidal activity (% control) SOY
Protocol: (§1) This example sets forth the methods of herbicidal testing conducted on the specific compounds set forth below. Specifically, the compounds referenced below were tested for pre- and post-emergence herbicidal activity using a variety of crops and weeds. The test plants include, but are not limited to, soybean (Glycine max -- var. Winchester), field corn (Zea mays var. Pioneer 3732), wheat (Triticum aestivum var. Lew), morningglory (Ipomea lacunosa or Ipomea hederacea), velvetleaf (Abutilon theophrasti), green foxtail (Setaria viridis), Johnsongrass (Sorghum halepense), blackgrass (Aloepecurus myosuroides), common chickweed (Stellaria media), and common cocklebur (Xanthium strumarium L.).
(§2) In the post-emergence test, seeds of the plant species named above were planted in flats containing the appropriate soil mixture where they were maintained to allow the seeds to germinate. When the plants in these flats reached the proper stage of growth, flats for the pre-emergence tests were planted in a like manner. The flats containing the post-emergence and pre-emergence test plant species were then sprayed with an appropriately concentrated water/acetone solution of test compound. Once treated the flats were maintained, along with untreated controls, for about fourteen days. All treated plants were then examined for phytotoxicity, which was expressed as percent control where 0 is no effect and 100 is complete control. Effective rates of application for the compounds of the present invention range from 0.001 to 3 kg/ha, more likely from […] to 1 Kg/ha.
(§3) Herbicidal activity data at selected application rates are in Tables 4 and 5. The test compounds are identified by numbers correspond to those in Table 1.
(§4) Rate of application of test compound is 1 kg/Ha
(§5) SOY is soybean, WHT is wheat, CRN is corn, ABUTH is velvetleaf, IPOSS is
(§6) morningglory, STEME is chickweed, XANPE is cocklebur, ALOMY is blackgrass, […]

[2] = tested on: wheat (Triticum aestivum var. Lew); test: pre-emergence herbicidal activity, wheat; conditions: 1 kg/Ha, about fourteen days, read-out: pre-emergence herbicidal activity (% control) WHT
Protocol: as §1, §2, §3, §4, §5, §6

[3] = tested on: field corn (Zea mays var. Pioneer 3732); test: pre-emergence herbicidal activity, corn; conditions: 1 kg/Ha, about fourteen days, read-out: pre-emergence herbicidal activity (% control) CRN
Protocol: as §1, §2, §3, §4, §5, §6

[4] = tested on: velvetleaf (Abutilon theophrasti); test: pre-emergence herbicidal activity, velvetleaf; conditions: 1 kg/Ha, about fourteen days, read-out: pre-emergence herbicidal activity (% control) ABUTH
Protocol: as §1, §2, §3, §4, §5, §6

[5] = tested on: morningglory (Ipomea lacunosa or Ipomea hederacea); test: pre-emergence herbicidal activity, morningglory; conditions: Ipomoea, 1 kg/Ha, about fourteen days, read-out: pre-emergence herbicidal activity (% control) IPOSS
Protocol: as §1, §2, §3, §4, §5, §6

[6] = tested on: common chickweed (Stellaria media); test: pre-emergence herbicidal activity, chickweed; conditions: 1 kg/Ha, about fourteen days, read-out: pre-emergence herbicidal activity (% control) STEME
Protocol: as §1, §2, §3, §4, §5, §6

[7] = tested on: common cocklebur (Xanthium strumarium L.); test: pre-emergence herbicidal activity, cocklebur; conditions: 1 kg/Ha, about fourteen days, read-out: pre-emergence herbicidal activity (% control) XANPE
Protocol: as §1, §2, §3, §4, §5, §6

[8] = tested on: blackgrass (Aloepecurus myosuroides); test: pre-emergence herbicidal activity, blackgrass; conditions: Alopecurus myosuroides, 1 kg/Ha, about fourteen days, read-out: pre-emergence herbicidal activity (% control) ALOMY
Protocol: as §1, §2, §3, §4, §5, §6

[9] = tested on: green foxtail (Setaria viridis); test: pre-emergence herbicidal activity, green foxtail; conditions: 1 kg/Ha, about fourteen days, read-out: pre-emergence herbicidal activity (% control) SETVI
Protocol: as §1, §2, §3, §4, §5, §6

[10] = tested on: Johnsongrass (Sorghum halepense); test: pre-emergence herbicidal activity, johnsongrass; conditions: 1 kg/Ha, about fourteen days, read-out: pre-emergence herbicidal activity (% control) SORHA
Protocol: as §1, §2, §3, §4, §5, §6

[11] = tested on: soybean (Glycine max -- var. Winchester); test: post-emergence herbicidal activity, soybean; conditions: 1 Kg/Ha, about fourteen days, read-out: post-emergence herbicidal activity (% control) SOY
Protocol: as §1, §2, §3, §5
(§7) morningglory, STEME is chickweed, XANPE is cocklebur, ALOMY is blackgrass,
(§8) Rate of application of test compound is 1 Kg/Ha. The definitions as shown under Table 4 apply to Table 5.

[12] = tested on: wheat (Triticum aestivum var. Lew); test: post-emergence herbicidal activity, wheat; conditions: 1 Kg/Ha, about fourteen days, read-out: post-emergence herbicidal activity (% control) WHT
Protocol: as §1, §2, §3, §5, §7, §8

[13] = tested on: field corn (Zea mays var. Pioneer 3732); test: post-emergence herbicidal activity, corn; conditions: 1 Kg/Ha, about fourteen days, read-out: post-emergence herbicidal activity (% control) CRN
Protocol: as §1, §2, §3, §5, §7, §8

[14] = tested on: velvetleaf (Abutilon theophrasti); test: post-emergence herbicidal activity, velvetleaf; conditions: 1 Kg/Ha, about fourteen days, read-out: post-emergence herbicidal activity (% control) ABUTH
Protocol: as §1, §2, §3, §5, §7, §8

[15] = tested on: morningglory (Ipomea lacunosa or Ipomea hederacea); test: post-emergence herbicidal activity, morningglory; conditions: Ipomoea, 1 Kg/Ha, about fourteen days, read-out: post-emergence herbicidal activity (% control) IPOSS
Protocol: as §1, §2, §3, §5, §7, §8

[16] = tested on: common cocklebur (Xanthium strumarium L.); test: post-emergence herbicidal activity, cocklebur; conditions: 1 Kg/Ha, about fourteen days, read-out: post-emergence herbicidal activity (% control) XANPE
Protocol: as §1, §2, §3, §5, §7, §8

[17] = tested on: green foxtail (Setaria viridis); test: post-emergence herbicidal activity, green foxtail; conditions: 1 Kg/Ha, about fourteen days, read-out: post-emergence herbicidal activity (% control) SETVI
Protocol: as §1, §2, §3, §5, §7, §8

[18] = tested on: Johnsongrass (Sorghum halepense); test: post-emergence herbicidal activity, johnsongrass; conditions: 1 Kg/Ha, about fourteen days, read-out: post-emergence herbicidal activity (% control) SORHA
Protocol: as §1, §2, §3, §5, §7, §8

| Compound | activity at 1000 g/ha [1] [%] | activity at 1000 g/ha [2] [%] | activity at 1000 g/ha [3] [%] | activity at 1000 g/ha [4] [%] | activity at 1000 g/ha [5] [%] | activity at 1000 g/ha [6] [%] | activity at 1000 g/ha [7] [%] | activity at 1000 g/ha [8] [%] | activity at 1000 g/ha [9] [%] | activity at 1000 g/ha [10] [%] | activity at 1000 g/ha [11] [%] | activity at 1000 g/ha [12] [%] | activity at 1000 g/ha [13] [%] | activity at 1000 g/ha [14] [%] | activity at 1000 g/ha [15] [%] | activity at 1000 g/ha [16] [%] | activity at 1000 g/ha [17] [%] | activity at 1000 g/ha [18] [%] |
| --- | --- | --- | --- | --- | --- | --- | --- | --- | --- | --- | --- | --- | --- | --- | --- | --- | --- | --- |
| CCCN1Cc2c(-n3c(=O)cc(C(F)(F)F)n(C)c3=O)ccc(Cl)c2C1=O [Compound 13] | 100 | 100 | 100 | 100 | 100 | 100 | 100 | 100 | 100 | 100 | 100 | 100 | 100 | 100 | 100 | 95 | 100 | 100 |
| Cn1c(C(F)(F)F)cc(=O)n(-c2ccc(Cl)c3c2CN(C(C)(C)C)C3=O)c1=O [Compound 14, 3-[7-chloro-2-(1,1-dimethylethyl)isoindolin-1-on-4-yl]-1-methyl-6-trifluoromethyl-2,4(1H,3H)-pyrimidinedione] | 100 | 100 | 100 | 100 | 100 | 100 | 100 | 100 | 100 | 100 | 100 | 100 | 80 | 100 | 90 | 100 | 100 | 100 |
| Cn1c(C(F)(F)F)cc(=O)n(-c2c(Cl)cc(Cl)c3c2CNC3=O)c1=O [Compound 15] | 100 | 95 | 95 | 100 | 100 | 60 | 100 | 100 | 100 | 100 | 70 | 50 | 60 | 100 | 100 | 60 | 60 | 40 |
| Cn1c(C(F)(F)F)cc(=O)n(-c2c(Cl)cc(Cl)c3c2CN(O)C3=O)c1=O [Compound 16] | 50 | 70 | 90 | 100 | 65 | 5 | 80 | 60 | 100 | 100 | 60 | 20 | 40 | 50 | 20 | 30 | 30 | 30 |

Reference: US6277847A, “Herbicidal isoindolinonyl-and 3,4-dihydroisoquinolonyl-substituted heterocycles” (FMC Corporation, priority 2000, dated 2001)
